US20030187059A1, “Methods and compounds useful in inhibiting oxidative and/or free radical damage and in the treatment and prevention of disease” (priority 2002, published 2003)

System: rat liver microsomes
Assay: Inhibition of ferrous ion-stimulated formation of maliondialdehyde (lipid peroxidation) in rat liver microsomes
Type: biochemical
Settings: ferrous sulfate 1 mM, 37° C. for 1 hour, test compound in DMSO, read-out: IC50, inhibition of production of MDA (as measured by the MDA-TBA adduct)
Method: The in vitro antioxidant activity of Compound MH-1 was evaluated by measuring its inhibitory effect on the ferrous ion-stimulated formation of maliondialdehyde (“MDA”), an end product of lipid peroxidation, in rat liver microsomes. The antioxidant activity of Compound MH-1 was compared with the in vitro antioxidant activity of α-tocopherol, a known antioxidant. A modified procedure originally described in Bernheim et al., “The Reaction Between Thiobarbituric Acid and the Oxidation Products of Certain Lipids,” J. Biol. Chem., 174:257-264 (1948) and Wills, “Lipid Peroxide Formation in Microsomes,” Biochem. J., 113:325-332 (1969), which are hereby incorporated by reference, was used to carry out the assay.
Freshly harvested rat livers (100 mg/ml) were homogenized in Tris-KCl buffer (0.05M, pH 7.4). The microsomal fraction was isolated by differential centrifugation (40,000 rpm; 106,000 g) and resuspended in Tris-KCl (100 mg/ml, initial concentration). The microsomal suspension was incubated with or without the test compound (Compound MH-1 in DMSO, 0.0-0.5mM or α-tocopherol in dimethylsulfoxide, 0.0-0.6 mM) at 37° C. for 3 minutes. […] Maliondialdeyde-TBA adduct concentrations in the butanol extract were measured by fluorescence spectroscopy (emission 553 nm, excitation 532 nm). […]

For `Cc1c(C)c2c(c(C)c1OC(=O)CCCC[C@@H]1CCSS1)CC[C@@](C)(CC[C@H](C)CCC[C@H](C)CCCC(C)C)O2` [Compound MH-1], which IC50 is on record?
Its IC50 is 266 µM.

For `Cc1c(C)c2c(c(C)c1O)CC[C@@](C)(CCC[C@H](C)CCC[C@H](C)CCCC(C)C)O2` [α-tocopherol], which IC50 is on record?
The IC50 was 307 µM.
